Assay results as given in patent US11628164B2, “Composition containing salsolinol for treating liver cancer” (SUNGSHIN WOMEN'S UNIVERSITY R&DB FOUNDATION, priority 2020, dated 2023).

Tested on: SK-Hep1
Experiment: Cell migration assay (culture-insert gap)
Format: cell-based, human
Conditions: 25 μM salsolinol
Description: A culture-insert (Ibidi; Martinsried, Germany) is attached to a 24-well plate to make a 500 μm interval, and then the cultured liver cancer cell lines (SK-Hep1) are dispensed so as to have a concentration of 1.5×10^5 cells. And the culturing is performed for 24 hours. After detaching the insert from the plate, each well is treated with the salsolinol so as to have a concentration of 25 μM. After the culturing is performed for 24 hours and for 48 hours, and the sample is photographed by a microscope to check the ability of migrating cells. The SK-Hep1 cells are dispensed into the culture-insert so as to have a concentration of 1.5×10^5 cells, and the culturing is performed for 24 hours. After detaching the insert from the plate, each well is treated with the salsolinol so as to have a concentration of 25 μM. After the culturing is performed for 24 hours and 48 hours, and the sample is photographed by a microscope to check the cell migration ability (refer to FIG. 3). […] When the culturing is performed for 48 hours, a large number of SK-Hep1 cells are migrated, and it is confirmed that the scratch disappears.

With CC1NCCc2cc(O)c(O)cc21 (centres unmarked) [salsolinol, 6,7-dihydroxy-1-methyl-1,2,3,4-tetrahydroisoquinoline] the cell migration ability (24 hours) was “some cells are migrated, but the scratch portion is clearly distinguished” and the cell migration ability (48 hours) was “scratch portion does not disappear”.
